The text below walks through data of patent US20250059205A1, “Heterocyclic Compounds and Methods of Use” (AMGEN INC., priority 2021, published 2025).

As usually defined, the IC50 is the concentration that inhibits the measured activity by half.

Test [1] relates to Phosphorylation of ERK1/2 in A-427 cells. Nature of the test: Phospho-ERK1/2 MSD Assay (A-427 cells). It counts as cell-based. The conditions noted are these: Homo sapiens, A-427, 2 h, 2 h treatment, read-out: p-ERK (A427 cells) IC50. The gist of the method: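 ERK1/2 phosphorylation measured by Meso Scale whole-cell lysate assay after A-427 cells were exposed to a titration of compound for 2 h at 37 °C.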

The subject of test [2] is Phosphorylation of ERK1/2 in AsPC-1 cells. As to the kind of experiment: Phospho-ERK1/2 MSD Assay (AsPC-1 cells). It counts as cell-based. The conditions noted are these: Homo sapiens, ASPC1, 2 h, 2 hours treatment, read-out: p-ERK (AsPC-1 cells) IC50. The method, boiled down:
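Read-out: MSD electrochemiluminescent detection of phosphorylated ERK1/2 in whole-cell lysates, fitted to a 4-parameter logistic curve for IC50. Prior to lysis, AsPC-1 cells (25,000 per well) received a 2 h compound dose-response at 37 °C.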

Test [3] deals with His-tagged KRAS G12D protein (Homo sapiens, UniProt P01116, G12D). As to the kind of experiment: KRAS G12D TR-FRET Assay. The class given is binding. Background: TR-FRET usually uses a lanthanide donor and a delayed reading to cut background.
His-tagged KRAS G12D protein, sequence (P01116 1-188 isoform P01116-2 G12D): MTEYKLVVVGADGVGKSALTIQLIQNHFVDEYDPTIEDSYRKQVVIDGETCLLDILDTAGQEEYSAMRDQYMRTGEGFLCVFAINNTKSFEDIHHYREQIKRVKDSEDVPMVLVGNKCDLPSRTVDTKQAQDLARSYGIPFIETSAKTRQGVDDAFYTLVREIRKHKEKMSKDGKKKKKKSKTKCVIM
Test [4] addresses GDP-bound KRAS protein (aa 1-169), containing both G12D and C118A amino acid substitutions (Homo sapiens, UniProt P01116, C118A/G12D). As to the kind of experiment: KRAS G12D Coupled Nucleotide Exchange Assay. It counts as biochemical. The conditions noted are these: 2 h compound pre-incubation. On the procedure: Following compound pre-incubation, purified SOS protein (aa 564-1049) and GTP (Roche 10106399001) were added to the assay wells and incubated for an additional 30 min. […] The assay plates were then read on a PerkinElmer EnVision Multilabel Reader, using AlphaScreen® technology, and data were analyzed using a 4-parameter logistic model to calculate IC50 values.

GDP-bound KRAS protein (aa 1-169), containing both G12D and C118A amino acid substitutions, sequence (P01116 1-169 isoform P01116-2 G12D/C118A): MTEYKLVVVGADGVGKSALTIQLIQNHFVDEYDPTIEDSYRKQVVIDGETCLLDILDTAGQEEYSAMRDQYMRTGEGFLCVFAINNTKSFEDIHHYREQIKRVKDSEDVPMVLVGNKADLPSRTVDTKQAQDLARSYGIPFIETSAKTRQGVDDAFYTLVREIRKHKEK

For the molecule `Fc1c(-c2cccc3cccc(Cl)c23)ccc2c(N3C[C@H]4CC[C@@H](C3)N4)nc(OC[C@@]34CCCN3C[C@H](F)C4)nc12` [Example 55, 4-((1R,5S)-3,8-diazabicyclo[3.2. 1]octan-3-yl)-7-(8-chloronaphthalen-1-yl)-8-fluoro-2-(((2R,7aS)-2-fluorotetrahydro-1H-pyrrolizin-7a(5H)-yl)methoxy) quinazoline], the IC50 in test [1] turned out to be 1150 nM; in test [2], 1660 nM; in test [3] it was 8 nM. Further, in test [4], the “Avg 2 h Coupled Exchange IC50” value came out at 7 nM.
The like results for `Oc1cc(-c2ccc3c(N4C[C@H]5CC[C@@H](C4)N5)nc(OC[C@@]45CCCN4C[C@H](F)C5)nc3c2F)c2c(Cl)cccc2c1` [Example 56, 4-(4-((1R,5S)-3,8-diazabicyclo[3.2. 1]octan-3-yl)-8-fluoro-2-(((2R,7aS)-2-fluorotetrahydro-1H-pyrrolizin-7a(5H)-yl)methoxy)quinazolin-7-yl)-5-chloronaphthalen-2-ol] were, in that order, 23 nM, 109 nM, 5 nM and 4 nM.
For `Cc1c(-c2cc(O)cc3cccc(Cl)c23)ccc2c(N3C[C@H]4CC[C@@H](C3)N4)nc(OC[C@@]34CCCN3C[C@H](F)C4)nc12` [Example 57, 4-(4-((1R,5S)-3,8-diazabicyclo[3.2. 1]octan-3-yl)-2-(((2R,7aS)-2-fluorotetrahydro-1H-pyrrolizin-7a(5H)-yl)methoxy)-8-methylquinazolin-7-yl)-5-chloronaphthalen-2-ol], the IC50 in test [1] stood at 222 nM; in test [2], 213 nM; in test [3], 5 nM. Also, the “Avg 2 h Coupled Exchange IC50” value in test [4] is 3 nM.
The like results for `CCc1c(F)ccc2cccc(-c3ccc4c(N5C[C@H]6CC[C@@H](C5)N6)nc(OC[C@@]56CCCN5C[C@H](F)C6)nc4c3C)c12` [Example 58, 4-((1R,5S)-3,8-diazabicyclo[3.2. 1]octan-3-yl)-7-(8-ethyl-7-fluoronaphthalen-1-yl)-2-(((2R,7aS)-2-fluorotetrahydro-1H-pyrrolizin-7a(5H)-yl)methoxy)-8-methylquinazolin] were, in that order, 4190 nM, 2460 nM, 6 nM and 5 nM.
The like results for `CCc1cccc2cccc(-c3ccc4c(N5C[C@H]6CC[C@@H](C5)N6)nc(OC[C@@]56CCCN5C[C@H](F)C6)nc4c3C)c12` [Example 59, 4-((1R,5S)-3,8-diazabicyclo[3.2. 1]octan-3-yl)-7-(8-ethylnaphthalen-1-yl)-2-(((2R,7aS)-2-fluorotetrahydro-1H-pyrrolizin-7a(5H)-yl)methoxy)-8-methylquinazoline] were, in that order, 3380 nM, 4160 nM, 8 nM and 11 nM.
For `N#Cc1cccc2cccc(-c3c(F)cc4c(N5C[C@H]6CC[C@@H](C5)N6)nc(OC[C@@]56CCCN5C[C@H](F)C6)nc4c3F)c12` [Example 60, 8-(4-((1R,5S)-3,8-diazabicyclo[3.2. 1]octan-3-yl)-6,8-difluoro-2-(((2R,7aS)-2-fluorotetrahydro-1H-pyrrolizin-7a(5H)-yl)methoxy)quinazolin-7-yl)-1-naphthonitrile], the values for the concentration for half-maximal inhibition (IC50) in test [1], in test [2] and in test [3] were 530 nM, 418 nM and 8 nM, respectively. The “Avg 2 h Coupled Exchange IC50” value in test [4] amounted to 4 nM.
The like results for `CC(C)(O)COc1nc(N2C[C@H]3CC[C@@H](C2)N3)c2cc(F)c(-c3cc(O)cc4ccccc34)c(F)c2n1` [Example 64, 4-(4-((1R,5S)-3,8-diazabicyclo[3.2. 1]octan-3-yl)-6,8-difluoro-2-(2-hydroxy-2-methylpropoxy)quinazolin-7-yl)naphthalen-2-ol] were, in that order, 5050 nM, 7030 nM, 51 nM and 17 nM.
The like results for `CCc1c(F)ccc2cc(O)cc(-c3c(F)cc4c(N5C[C@H]6CC[C@@H](C5)N6)nc(OCC(C)(C)O)nc4c3F)c12` [Example 65, 4-(4-((1R,5S)-3,8-diazabicyclo[3.2. 1]octan-3-yl)-6,8-difluoro-2-(2-hydroxy-2-methylpropoxy)quinazolin-7-yl)-5-ethyl-6-fluoronaphthalen-2-ol] were, in that order, 699 nM, 547 nM, 7 nM and 8 nM.
In the case of `CCc1cccc2cccc(-c3c(F)cc4c(N5C[C@H]6CC[C@@H](C5)N6)nc(OC[C@@]56CCCN5C[C@H](F)C6)nc4c3F)c12` [Example 68, 4-((1R,5S)-3,8-diazabicyclo[3.2. 1]octan-3-yl)-7-(8-ethylnaphthalen-1-yl)-6,8-difluoro-2-(((2R,7aS)-2-fluorotetrahydro-1H-pyrrolizin-7a(5H)-yl)methoxy) quinazoline], the half-inhibitory concentration (IC50) worked out at 732 nM in test [1], 658 nM in test [2] and 4 nM in test [3]. The “Avg 2 h Coupled Exchange IC50” value in test [4] is 3 nM.
Regarding `CCc1c(F)ccc2cccc(-c3c(F)cc4c(N5C[C@H]6CC[C@@H](C5)N6)nc(OC[C@@]56CCCN5C[C@H](F)C6)nc4c3F)c12` [Example 69, 4-((1R,5S)-3,8-diazabicyclo[3.2. 1]octan-3-yl)-7-(8-ethyl-7-fluoronaphthalen-1-yl)-6,8-difluoro-2-(((2R,7aS)-2-fluorotetrahydro-1H-pyrrolizin-7a(5H)-yl)methoxy) quinazoline], the IC50 in test [1] was determined as 1000 nM; in test [2], 514 nM; in test [3] it was 4 nM. Also, in test [4], the “Avg 2 h Coupled Exchange IC50” value came to 2 nM.
`Oc1cc(-c2c(F)cc3c(N4C[C@H]5CC[C@@H](C4)N5)nc(OC[C@@]45CCCN4C[C@H](F)C5)nc3c2F)c2c(Cl)cccc2c1` [Example 70, 4-(4-((1R,5S)-3,8-diazabicyclo[3.2. 1]octan-3-yl)-6,8-difluoro-2-(((2R,7aS)-2-fluorotetrahydro-1H-pyrrolizin-7a(5H)-yl)methoxy)quinazolin-7-yl)-5-chloronaphthalen-2-ol]: the results for the half-inhibitory concentration (IC50) in test [1], in test [2] and in test [3] were 12 nM, 49 nM and 3 nM, respectively. Moreover, in test [4], the “Avg 2 h Coupled Exchange IC50” value amounted to 7 nM.
The like results for `CCc1cccc2cccc(-c3c(Cl)cc4c(N5C[C@H]6CC[C@@H](C5)N6)nc(OC[C@@]56CCCN5C[C@H](F)C6)nc4c3F)c12` [Example 71, 4-((1R,5S)-3,8-diazabicyclo[3.2. 1]octan-3-yl)-6-chloro-7-(8-ethylnaphthalen-1-yl)-8-fluoro-2-(((2R,7aS)-2-fluorotetrahydro-1H-pyrrolizin-7a(5H)-yl)methoxy) quinazoline] were, in that order, 4790 nM, 3360 nM, 38 nM and 50 nM.
The like results for `CCc1cccc2cccc(-c3cc4nc(OC[C@@]56CCCN5C[C@H](F)C6)nc(N5C[C@H]6CC[C@@H](C5)N6)c4cc3F)c12` [Example 72, 4-((1R,5S)-3,8-diazabicyclo[3.2. 1]octan-3-yl)-7-(8-ethylnaphthalen-1-yl)-6-fluoro-2-(((2R,7aS)-2-fluorotetrahydro-1H-pyrrolizin-7a(5H)-yl)methoxy) quinazoline] were, in that order, 2680 nM, 2600 nM, 23 nM and 18 nM.
The like results for `Cc1c(Cl)cc2[nH]ncc2c1-c1c(Cl)cc2c(N3C[C@H]4CC[C@@H](C3)N4)nc(OC[C@@]34CCCN3C[C@H](F)C4)nc2c1F` [Example 73, 4-((1R,5S)-3,8-diazabicyclo[3.2. 1]octan-3-yl)-6-chloro-7-(6-chloro-5-methyl-1H-indazol-4-yl)-8-fluoro-2-(((2R,7aS)-2-fluorotetrahydro-1H-pyrrolizin-7a(5H)-yl)methoxy) quinazoline] were, in that order, 422 nM, 715 nM, 15 nM and 17 nM.
Regarding `Cc1c(Cl)cc2[nH]ncc2c1-c1c(F)cc2c(N3C[C@H]4CC[C@@H](C3)N4)nc(OC[C@@]34CCCN3C[C@H](F)C4)nc2c1F` [Example 74, 4-((1R,5S)-3,8-diazabicyclo[3.2. 1]octan-3-yl)-7-(6-chloro-5-methyl-1H-indazol-4-yl)-6,8-difluoro-2-(((2R,7aS)-2-fluorotetrahydro-1H-pyrrolizin-7a(5H)-yl)methoxy) quinazoline], the results for the IC50 in test [1], in test [2] and in test [3] were 148 nM, 386 nM and 7 nM, respectively. Further, the “Avg 2 h Coupled Exchange IC50” value in test [4] was determined as 7 nM.
With `Cc1cc2[nH]ncc2c(-c2c(F)cc3c(N4C[C@H]5CC[C@@H](C4)N5)nc(OC[C@@]45CCCN4C[C@H](F)C5)nc3c2F)c1Cl` [Example 75, 4-((1R,5S)-3,8-diazabicyclo[3.2. 1]octan-3-yl)-7-(5-chloro-6-methyl-1H-indazol-4-yl)-6,8-difluoro-2-(((2R,7aS)-2-fluorotetrahydro-1H-pyrrolizin-7a(5H)-yl)methoxy) quinazoline], the IC50 in test [1] worked out at 139 nM; in test [2] it was 297 nM; in test [3] it was 5 nM. Further, the “Avg 2 h Coupled Exchange IC50” value in test [4] was 3 nM.
